Literature values, collected in patent publication EP0959130A1, “Cloning and expression of a new glucoamylase gene from endomyces fibuliger” (SOCIETE DES PRODUITS NESTLE S.A., priority 1998, dated 1999).

Assays:
[1] = system: Glucoamylase I from E.fibuliger IFO 0111; conditions: purified Glucoamylase I; from Futatsugi et al., 1993; read-out: Km for maltose
[2] = system: Glucoamylase II from E.fibuliger IFO 0111; conditions: purified Glucoamylase II; from Futatsugi et al., 1993; read-out: Km for maltose

- Km [1]: 8.3 mM
- Km [2]: 2.6 mM
SMILES: OC[C@H]1O[C@H](O[C@H]2[C@H](O)[C@@H](O)C(O)O[C@@H]2CO)[C@H](O)[C@@H](O)[C@@H]1O (mixture of isomers) [maltose]
